The term EC50 denotes the concentration giving half of the maximal effect. Lower therefore signals greater potency. In general, IC50 refers to the midpoint of a concentration-inhibition curve. Read a high IC50 as lower potency.

Data on 27 molecules can be found in US20240043427A1 (Gilead Sciences, Inc., priority 2020, published 2024).

Experiment [1] has as its target T1, CD73 (Homo sapiens (Human), UniProt P21589). In words: MDA-MB-231 Cell Based CD73 Activity Assay (DMEM). As to conditions: MDA-MB-231-GFP cells, DMEM medium with 10% human plasma, 200 uM AMP.
Experiment [2] deals with T1, CD73. In kind it is biochemical. The note with it: 1 mM NaH2PO4 in enzyme buffer, CD73 0.3 nM, AMP 15 uM.
Experimental: Compound serial dilutions were pre-spotted into Thermo Nunc assay plate. 50 uL CD73 enzyme buffer (CD73 purchased from R&D system=0.6 nM, 25 mM Tris, pH 7.4, 5 mM MgCl2, 1 mM NaH2PO4) was added into the assay plate and incubate for 15 mins. […] After incubation for 60 mins, the supernatant (20 uL) was transferred into 384-well NUNC plate pre-filled with 60 uL Quench buffer (80% organic and 20% water+0.1% FA) with internal standard. The plate was spun down at 4500 rpm for 20 mins, then 20 uL of supernatant was transferred to another Nunc plate prefilled with 80 uL of water. The samples were analyzed using Rapid fire.

T1 sequence (P21589 27-574): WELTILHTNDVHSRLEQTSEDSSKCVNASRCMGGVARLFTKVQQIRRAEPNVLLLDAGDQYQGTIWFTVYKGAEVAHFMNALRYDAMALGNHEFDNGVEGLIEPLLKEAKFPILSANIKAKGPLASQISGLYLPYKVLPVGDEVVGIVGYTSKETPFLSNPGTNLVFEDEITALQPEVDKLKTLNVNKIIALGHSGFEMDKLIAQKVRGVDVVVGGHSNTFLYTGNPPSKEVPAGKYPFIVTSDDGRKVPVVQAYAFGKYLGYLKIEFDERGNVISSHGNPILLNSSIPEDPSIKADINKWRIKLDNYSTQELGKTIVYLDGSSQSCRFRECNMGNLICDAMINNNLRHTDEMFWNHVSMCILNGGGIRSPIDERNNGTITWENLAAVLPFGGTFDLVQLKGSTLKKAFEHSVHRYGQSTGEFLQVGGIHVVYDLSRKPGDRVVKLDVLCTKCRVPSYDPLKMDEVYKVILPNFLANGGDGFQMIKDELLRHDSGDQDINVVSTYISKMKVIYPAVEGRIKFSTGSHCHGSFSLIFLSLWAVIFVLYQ

At CD73 [1], `O=c1[nH]cc(-c2cc([C@@H]3C[C@H]3c3ccc(Cl)cc3)c3nccn3n2)c(=O)[nH]1` [Example 634, 5-(8-((1R,2R)-2-(4-chlorophenyl)cyclopropyl)imidazo[1,2-b]pyridazin-6-yl)pyrimidine-2,4(1H,3H)-dione] came in with an EC50 of 39 nM. Also, the IC50 at CD73 [2] came out at 5.19 nM.
The matching figures for `O=c1[nH]cc(-c2cc([C@H]3C[C@@H]3c3ncc(C(F)(F)F)cc3F)c3nccn3n2)c(=O)[nH]1` [Example 635, 5-(8-((1S,2S)-2-(3-fluoro-5-(trifluoromethyl)pyridin-2-yl)cyclopropyl)imidazo[1,2-b]pyridazin-6-yl)pyrimidine-2,4(1H,3H)-dione]: 2.75 nM and 2.08 nM.
The matching figures for `O=c1[nH]cc(-c2cc([C@H]3C[C@@H]3c3cc4c(cn3)cnn4CC(F)(F)F)c3nccn3n2)c(=O)[nH]1` [Example 636, 5-(8-((1S,2S)-2-(1-(2,2,2-trifluoroethyl)-1H-pyrazolo[4,3-c]pyridin-6-yl)cyclopropyl)imidazo[1,2-b]pyridazin-6-yl)pyrimidine-2,4(1H,3H)-dione]: 0.13 nM and 0.34 nM.
The matching figures for `O=c1[nH]cc(-c2cc([C@H]3C[C@@H]3c3cc4c(cn3)c(C(F)(F)F)nn4CC(F)(F)F)c3nccn3n2)c(=O)[nH]1` [Example 637, 5-(8-((1S,2S)-2-(1-(2,2,2-trifluoroethyl)-3-(trifluoromethyl)-1H-pyrazolo[4,3-c]pyridin-6-yl)cyclopropyl)imidazo[1,2-b]pyridazin-6-yl)pyrimidine-2,4(1H,3H)-dione]: 0.39 nM and 2.06 nM.
Take `O=c1[nH]cc(-c2cc([C@H]3C[C@@H]3c3ccc4nc5n(c4c3)[C@H](C(F)(F)F)CC5)c3nccn3n2)c(=O)[nH]1` [Example 639, 5-(8-((1S,2S)-2-((S)-1-(trifluoromethyl)-2,3-dihydro-1H-benzo[d]pyrrolo[1,2-a]imidazol-7-yl)cyclopropyl)imidazo[1,2-b]pyridazin-6-yl)pyrimidine-2,4(1H,3H)-dione]: the EC50 at CD73 [1] was 0.58 nM. On CD73 [2], this molecule showed an IC50 of 2.42 nM.
For `O=c1[nH]cc(-c2cc([C@H]3C[C@@H]3c3ccc4nc5n(c4c3)[C@@H](C(F)(F)F)CC5)c3nccn3n2)c(=O)[nH]1` [Example 640, 5-(8-((1S,2S)-2-((R)-1-(trifluoromethyl)-2,3-dihydro-1H-benzo[d]pyrrolo[1,2-a]imidazol-7-yl)cyclopropyl)imidazo[1,2-b]pyridazin-6-yl)pyrimidine-2,4(1H,3H)-dione], in that order: 0.12 nM and 1.6 nM.
For `O=c1[nH]cc(-c2cc(N3CC4CC3C4)c3nccn3n2)c(=O)[nH]1` [Example 641, 5-(8-(2-azabicyclo[2.1.1]hexan-2-yl)imidazo[1,2-b]pyridazin-6-yl)pyrimidine-2,4(1H,3H)-dione], in that order: 207 nM and 77.5 nM.
The matching figures for `O=c1[nH]cc(-c2cc(N3CC4CCC3C4)c3nccn3n2)c(=O)[nH]1` (stereo not drawn) [Example 643, 5-(8-(2-azabicyclo[2.2.1]heptan-2-yl)imidazo[1,2-b]pyridazin-6-yl)pyrimidine-2,4(1H,3H)-dione]: 98.9 nM and 36.4 nM.
With `O=c1[nH]cc(-c2cc(N3CC4CC4(C(F)(F)F)C3)c3nccn3n2)c(=O)[nH]1` (stereo not drawn) [Example 645, 5-(8-(1-(trifluoromethyl)-3-azabicyclo[3.1.0]hexan-3-yl)imidazo[1,2-b]pyridazin-6-yl)pyrimidine-2,4(1H,3H)-dione], at CD73 [1], the EC50 was 79.6 nM. At CD73 [2], the IC50 amounted to 49 nM.
The matching figures for `O=c1[nH]cc(-c2cc(N3C4CCC3CC4)c3nccn3n2)c(=O)[nH]1` [Example 646, 5-(8-(7-azabicyclo[2.2.1]heptan-7-yl)imidazo[1,2-b]pyridazin-6-yl)pyrimidine-2,4(1H,3H)-dione]: 338 nM and over 250 nM.
For the molecule `O=c1[nH]cc(-c2cc(N3CC4CCC3CC4)c3nccn3n2)c(=O)[nH]1` [Example 647, 5-(8-(2-azabicyclo[2.2.2]octan-2-yl)imidazo[1,2-b]pyridazin-6-yl)pyrimidine-2,4(1H,3H)-dione], the EC50 on CD73 [1] came to 234 nM. On CD73 [2], this molecule gave an IC50 of 129 nM.
The matching figures for `O=c1[nH]cc(-c2cc(N3C4CCCC3CC4)c3nccn3n2)c(=O)[nH]1` [Example 648, 5-(8-(8-azabicyclo[3.2.1]octan-8-yl)imidazo[1,2-b]pyridazin-6-yl)pyrimidine-2,4(1H,3H)-dione]: 1950 nM and over 250 nM.
The matching figures for `CC1(C#N)CCN(c2cc(-c3c[nH]c(=O)[nH]c3=O)nn3ccnc23)C1` (stereo not drawn) [Example 649, 1-(6-(2,4-dioxo-1,2,3,4-tetrahydropyrimidin-5-yl)imidazo[1,2-b]pyridazin-8-yl)-3-methylpyrrolidine-3-carbonitrile]: 21.7 nM and 11.7 nM.
For `O=c1[nH]cc(-c2cc(N3CC4CC(C4)C3)c3nccn3n2)c(=O)[nH]1` [Example 650, 5-(8-(3-azabicyclo[3.1.1]heptan-3-yl)imidazo[1,2-b]pyridazin-6-yl)pyrimidine-2,4(1H,3H)-dione], in that order: 18.8 nM and 6.86 nM.
Regarding `O=c1[nH]cc(-c2cc(N3CCC4CCC3C4)c3nccn3n2)c(=O)[nH]1` (stereo not drawn) [Example 651, 5-(8-(2-azabicyclo[3.2.1]octan-2-yl)imidazo[1,2-b]pyridazin-6-yl)pyrimidine-2,4(1H,3H)-dione], the EC50 on CD73 [1] worked out at 480 nM. Besides, on CD73 [2], the IC50 was determined as 129 nM.
For `O=c1[nH]cc(-c2cc(N3CCC(CO)(CCl)C3)c3nccn3n2)c(=O)[nH]1` (stereo not drawn) [Example 652, 5-(8-(3-(chloromethyl)-3-(hydroxymethyl)pyrrolidin-1-yl)imidazo[1,2-b]pyridazin-6-yl)pyrimidine-2,4(1H,3H)-dione], in that order: 79.6 nM and 19.6 nM.
For `O=c1[nH]cc(-c2cc(N3CCC4(COC4)C3)c3nccn3n2)c(=O)[nH]1` [Example 653, 5-(8-(2-oxa-6-azaspiro[3.4]octan-6-yl)imidazo[1,2-b]pyridazin-6-yl)pyrimidine-2,4(1H,3H)-dione], in that order: 130 nM and 25.3 nM.
The matching figures for `CC(C)NC(=O)CC1CCN(c2cc(-c3c[nH]c(=O)[nH]c3=O)nn3ccnc23)C1` (stereo not drawn) [Example 654, 2-(1-(6-(2,4-dioxo-1,2,3,4-tetrahydropyrimidin-5-yl)imidazo[1,2-b]pyridazin-8-yl)pyrrolidin-3-yl)-N-isopropylacetamide]: 133 nM and 54.5 nM.
`O=C(CC(F)(F)F)N1CCC12CCN(c1cc(-c3c[nH]c(=O)[nH]c3=O)nn3ccnc13)C2` (stereo not drawn) [Example 655, 5-(8-(1-(3,3,3-trifluoropropanoyl)-1,6-diazaspiro[3.4]octan-6-yl)imidazo[1,2-b]pyridazin-6-yl)pyrimidine-2,4(1H,3H)-dione] gave an EC50 on CD73 [1] of 254 nM. The molecule further registered an IC50 at CD73 [2] of 40.4 nM.
For `CC(=O)N1CCC12CCN(c1cc(-c3c[nH]c(=O)[nH]c3=O)nn3ccnc13)C2` (stereo not drawn) [Example 656, 5-(8-(1-acetyl-1,6-diazaspiro[3.4]octan-6-yl)imidazo[1,2-b]pyridazin-6-yl)pyrimidine-2,4(1H,3H)-dione], in that order: 57 nM and 10.1 nM.
The matching figures for `CC(C)C(=O)N1CCC12CCN(c1cc(-c3c[nH]c(=O)[nH]c3=O)nn3ccnc13)C2` (stereo not drawn) [Example 657, 5-(8-(1-isobutyryl-1,6-diazaspiro[3.4]octan-6-yl)imidazo[1,2-b]pyridazin-6-yl)pyrimidine-2,4(1H,3H)-dione]: 227 nM and 81.3 nM.
For `O=C(CC1CN(c2cc(-c3c[nH]c(=O)[nH]c3=O)nn3ccnc23)CC1(F)F)NC1(C(F)(F)F)CC1` (stereo not drawn) [Example 658, 2-(1-(6-(2,4-dioxo-1,2,3,4-tetrahydropyrimidin-5-yl)imidazo[1,2-b]pyridazin-8-yl)-4,4-difluoropyrrolidin-3-yl)-N-(1-(trifluoromethyl)cyclopropyl)acetamide], a half-maximal effect at CD73 [1] (EC50) was put at 7.88 nM. For the same molecule, the IC50 against CD73 [2] was found to be 1.87 nM.
The matching figures for `CC(C)NC(=O)CC1CN(c2cc(-c3c[nH]c(=O)[nH]c3=O)nn3ccnc23)CC1(F)F` (stereo not drawn) [Example 659, 2-(1-(6-(2,4-dioxo-1,2,3,4-tetrahydropyrimidin-5-yl)imidazo[1,2-b]pyridazin-8-yl)-4,4-difluoropyrrolidin-3-yl)-N-isopropylacetamide]: 38.1 nM and 3.98 nM.
For `O=C(CC1CN(c2cc(-c3c[nH]c(=O)[nH]c3=O)nn3ccnc23)CC1(F)F)NC12CC(F)(C1)C2` (stereo not drawn) [Example 660, 2-(1-(6-(2,4-dioxo-1,2,3,4-tetrahydropyrimidin-5-yl)imidazo[1,2-b]pyridazin-8-yl)-4,4-difluoropyrrolidin-3-yl)-N-(3-fluorobicyclo[1.1.1]pentan-1-yl)acetamide], in that order: 33.6 nM and 6.05 nM.
For `O=C(CC1CN(c2cc(-c3c[nH]c(=O)[nH]c3=O)nn3ccnc23)CC1(F)F)NC12CC(C1)C2` (stereo not drawn) [Example 661, N-(bicyclo[1.1.1]pentan-1-yl)-2-(1-(6-(2,4-dioxo-1,2,3,4-tetrahydropyrimidin-5-yl)imidazo[1,2-b]pyridazin-8-yl)-4,4-difluoropyrrolidin-3-yl)acetamide], in that order: 25.5 nM and 4.68 nM.
`CC(C)NC(=O)C(F)(F)C1CCN(c2cc(-c3c[nH]c(=O)[nH]c3=O)nn3ccnc23)C1` (stereo not drawn) [Example 662, 2-(1-(6-(2,4-dioxo-1,2,3,4-tetrahydropyrimidin-5-yl)imidazo[1,2-b]pyridazin-8-yl)pyrrolidin-3-yl)-2,2-difluoro-N-isopropylacetamide]: a half-maximal effect on CD73 [1] (EC50) was put at 88.6 nM. This molecule displayed an IC50 at CD73 [2] of 19.2 nM.
The matching figures for `CC(C)n1cc(CC2CCN(c3cc(-c4c[nH]c(=O)[nH]c4=O)nn4ccnc34)C2)nn1` (stereo not drawn) [Example 663, 5-(8-(3-((1-isopropyl-1H-1,2,3-triazol-4-yl)methyl)pyrrolidin-1-yl)imidazo[1,2-b]pyridazin-6-yl)pyrimidine-2,4(1H,3H)-dione]: 160 nM and 24.5 nM.
